Patent publication US20260138990A1, “TRICYCLIC FUSED IMIDAZOLE COMPOUNDS AS CD38 MODULATORS AND USES THEREOF” (AEOVIAN PHARMACEUTICALS, INC., priority 2023, published 2026)

How the values were obtained:
mouse CD38 = target: T1, mouse CD38 (Mus musculus, UniProt P56528); assay: NAD+ cyclase activity assay with mouse recombinant CD38 protein (ε-NAD fluorescence); format: biochemical; settings: 0.6 nM mouse CD38, substrate ε-NAD, 30 min preincubation, fluorescence 300/410 nm
T1 construct: purchased Bio-Techne GmbH 4947-AC
T1 sequence (P56528 1-304): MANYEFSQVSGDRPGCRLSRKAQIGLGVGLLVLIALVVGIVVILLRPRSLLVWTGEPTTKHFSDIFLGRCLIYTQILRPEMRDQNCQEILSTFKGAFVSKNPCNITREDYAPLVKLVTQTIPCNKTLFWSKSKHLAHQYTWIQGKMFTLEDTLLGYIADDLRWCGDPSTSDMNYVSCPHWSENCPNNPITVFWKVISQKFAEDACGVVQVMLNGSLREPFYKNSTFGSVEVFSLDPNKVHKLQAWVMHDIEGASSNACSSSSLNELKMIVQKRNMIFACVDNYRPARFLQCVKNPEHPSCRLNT
Procedure: (§1) Example 4: NAD^+ Cydase Activity Assay with Human or Mouse Recombinant CD38 Protein
(§2) The following assay was used to determine the ability of compounds of the invention to inhibit the hydrolysis of NAD^+ by the human or mouse enzyme, CD38.
(§3) Reaction buffer: 40 mM HEPES/NaOH pH 7.5, 250 mM sucrose, 0.01% Tween
(§4) Final concentrations: 0.6 nM mouse CD38 (4947-AC, Bio-Techne GmbH) 1.9 nM human CD38 (AVI2404, Bio-Techne GmbH)
(§5) Substrate: […] Nicotinamide 1,N6-ethenoadenine dinucleotide (&-NAD)
(§6) Read-out: Fluorescence intensity (extinction 300 nm/emission 410 nm)
(§7) Required reaction buffer, required CD38 concentration in reaction buffer and required e-NAD concentration in reaction buffer were prepared. Thereafter, 8 μL of CD38 in reaction buffer was added to High Control and compound concentration wells in 384 well plate (Corning #4514, 384 well, nonbinding surface, low volume, round bottom) and 8 μL of reaction buffer to Low Control. Compound dilutions were transferred via pintool technology that transfers 42.5 nL compound dilutions (12-point dose-response with factor three dilutions in 100% DMSO) well-to-well. Plate was subsequently shaken for 15 s at 1450 rpm and sealed for incubation for 30 min at room temperature. Thereafter, 2 μL of e-NAD in reaction buffer were added with Integra Voyager. After shaking for 15 s at 1450 rpm, plate was sealed, and assay signal were measured continuously with PHERAstar® fluorescence intensity module (extinction 300 nm/emission 410 nm).
(§8) Dose-response curves were constructed using twelve-pointfactor three dilutions in triplicates per plate. High control (full enzyme activity) was set to assay signal of CD38 and e-NAD in presence of vehicle (DMSO) and Low control (full enzyme inhibition) was set to assay signal of e-NAD and vehicle (DMSO) in absence of CD38. For data analysis, fluorescent signal of traces corresponding to each compound concentration and High and Low control were monitored over time. Each run, High Control (full enzyme activity) was fitted to Linear equation via GraphPad Prism to determine CD38 activity from the slope and determine the time interval of linear phase of reaction to account for minor fluctuations. Thereafter, slopes of all compound concentrations were determined via fitting to same linear equation (GraphPad Prism) over the same time interval as determined for High control. […] Unless otherwise stated, fitting of curves were fixed to 100%-inhibition and unlocked for 0%-inhibition.

human CD38 = target: T2, human CD38 (Homo sapiens, UniProt P28907); assay: NAD+ cyclase activity assay with human recombinant CD38 protein (ε-NAD fluorescence); format: biochemical; settings: 1.9 nM human CD38, substrate ε-NAD, 30 min preincubation, fluorescence 300/410 nm
T2 construct: purchased Bio-Techne GmbH AVI2404
T2 sequence (P28907 1-300): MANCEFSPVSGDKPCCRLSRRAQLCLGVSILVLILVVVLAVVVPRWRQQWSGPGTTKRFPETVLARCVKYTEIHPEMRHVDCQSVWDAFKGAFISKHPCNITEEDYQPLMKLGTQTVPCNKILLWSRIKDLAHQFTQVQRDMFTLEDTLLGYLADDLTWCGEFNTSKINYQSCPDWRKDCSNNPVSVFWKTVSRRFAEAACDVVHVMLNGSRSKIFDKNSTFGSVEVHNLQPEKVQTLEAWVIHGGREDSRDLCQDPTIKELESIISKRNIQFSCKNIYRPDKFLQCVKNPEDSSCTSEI
Procedure: as §1, §2, §3, §4, §5, §6, §7, §8

IC50 (mouse CD38) [nM]	IC50 (human CD38) [nM]	SMILES
1 to 10	< 30	O=C(Nc1cnc2c(c1)OCCO2)c1ccc2c(c1)-c1cncn1CCO2 [Compound 31A, N-(2,3-Dihydro-[1,4]dioxino[2,3-b]pyridin-7-yl)-5,6-dihydrobenzo[f]imidazo[1,5-d][1,4]oxazepine-10-carboxamide]
1 to 10	< 30	O=C(Nc1ccc2c(c1)OCC2)c1ccc2c(c1)-c1cncn1CCO2 [Compound 32A, N-(2,3-Dihydrobenzofuran-6-yl)-5,6-dihydrobenzo[f]imidazo[1,5-d][1,4]oxazepine-10-carboxamide]
1 to 10	< 30	O=C(Nc1ccc2c(c1)COC2)c1ccc2c(c1)-c1cncn1CCO2 [Compound 33A, N-(1,3-Dihydroisobenzofuran-5-yl)-5,6-dihydrobenzo[f]imidazo[1,5-d][1,4]oxazepine-10-carboxamide]
1 to 10	< 30	O=C(Nc1ccc2nc[nH]c2c1)c1ccc2c(c1)-c1cncn1CCO2 [Compound 34A, N-(1H-Benzo [d]imidazol-6-yl)-5,6-dihydrobenzo[f]imidazo[1,5-d][1,4]oxazepine-10-carboxamide]
> 100	> 1000	CN(C)c1nc2ccc(C(=O)N[C@@H]3CCCOC3)cc2n2cncc12 [Compound 35A, (R)-4-(Dimethylamino)-N-(tetrahydro-2H-pyran-3-yl)imidazo[1,5-a]quinoxaline-8-carboxamide]
< 1	< 30	Cn1ccc(NC(=O)c2ccc3c(c2)-c2cncn2CCO3)cc1=O [Compound 36A, N-(1-Methyl-2-oxo-1,2-dihydropyridin-4-yl)-5,6-dihydrobenzo[f]imidazo[1,5-d][1,4]oxazepine-10-carboxamide]
1 to 10	< 30	CCCS(=O)(=O)N[C@H]1CC[C@H](NC(=O)c2ccc3c(c2)-c2cncn2CCO3)CC1 [Compound 37A, N-((1r,4r)-4-(Propylsulfonamido)cyclohexyl)-5,6-dihydrobenzo[f]imidazo[1,5-d][1,4]oxazepine-10-carboxamide]
10 to 100	> 1000	CC1(C)Cn2cncc2-c2cc(C(=O)N[C@@H]3CCCOC3)ccc2O1 [Compound 38A, (R)-6,6-Dimethyl-N-(tetrahydro-2H-pyran-3-yl)-5,6-dihydrobenzo[f]imidazo[1,5-d][1,4]oxazepine-10-carboxamide]
1 to 10	< 30	O=C(Nc1ccc2ncoc2c1)c1ccc2c(c1)-c1cncn1CCO2 [Compound 39A, N-(Benzo[d]oxazol-6-yl)-5,6-dihydrobenzo[f]imidazo[1,5-d][1,4]oxazepine-10-carboxamide]
1 to 10	< 30	O=C(Nc1cnc2scnc2c1)c1ccc2c(c1)-c1cncn1CCO2 [Compound 40A, N-(Thiazolo[5,4-b]pyridin-6-yl)-5,6-dihydrobenzo[f]imidazo[1,5-d][1,4]oxazepine-10-carboxamide]
1 to 10	< 30	O=C(Nc1ccc2ncsc2c1)c1ccc2c(c1)-c1cncn1CCO2 [Compound 41A, N-(Benzo[d]thiazol-6-yl)-5,6-dihydrobenzo[f]imidazo[1,5-d][1,4]oxazepine-10-carboxamide]
< 1	< 30	COCCO[C@H]1CC[C@H](NC(=O)c2cc(Br)c3c(c2)-c2cncn2CCO3)CC1 [Compound 46A, 8-Bromo-N-((1r,4r)-4-(2-methoxyethoxy)cyclohexyl)-5,6-dihydrobenzo[f]imidazo[1,5-d][1,4]oxazepine-10-carboxamide]
1 to 10	< 30	COCCNc1nc2cc(NC(=O)c3ccc4c(c3)-c3cncn3CCO4)ccc2s1 [Compound 48A, N-(2-((2-Methoxyethyl)amino)benzo[d]thiazol-5-yl)-5,6-dihydrobenzo[f]imidazo[1,5-d][1,4]oxazepine-10-carboxamide]
10 to 100	< 30	CN(C)c1nc2cc(NC(=O)c3ccc4c(c3)-c3cncn3CCO4)ccc2s1 [Compound 49A, N-(2-(Dimethylamino)benzo[d]thiazol-5-yl)-5,6-dihydrobenzo[f]imidazo[1,5-d][1,4]oxazepine-10-carboxamide]
1 to 10	30 to 100	COCCO[C@H]1CC[C@H](NC(=O)c2cc3c(c(C4CC4)c2)OCCn2cncc2-3)CC1 [Compound 50A, 8-Cyclopropyl-N-((1r,4r)-4-(2-methoxyethoxy)cyclohexyl)-5,6-dihydrobenzo[f]imidazo[1,5-d][1,4]oxazepine-10-carboxamide]
> 100	> 1000	CC1(C)COc2ccc(C(=O)N[C@@H]3CCCOC3)cc2-c2cncn21 [Compound 51A, (R)-5,5-Dimethyl-N-(tetrahydro-2H-pyran-3-yl)-5,6-dihydrobenzo[f]imidazo[1,5-d][1,4]oxazepine-10-carboxamide]
1 to 10	< 30	O=C(N[C@H]1CC[C@H](C(F)(F)F)CC1)c1ccc2c(c1)-c1cncn1CCO2 [Compound 52A, N-((1r,4r)-4-(Trifluoromethyl)cyclohexyl)-5,6-dihydrobenzo[f]imidazo[1,5-d][1,4]oxazepine-10-carboxamide]
< 1	< 30	COCCO[C@H]1CC[C@H](NC(=O)c2cc(C)c3c(c2)-c2cncn2CCO3)CC1 [Compound 53A, N-((1r,4r)-4-(2-Methoxyethoxy)cyclohexyl)-8-methyl-5,6-dihydrobenzo[f]imidazo[1,5-d][1,4]oxazepine-10-carboxamide]
1 to 10	< 30	COCCO[C@H]1CC[C@H](NC(=O)c2cc(OC)c3c(c2)-c2cncn2CCO3)CC1 [Compound 54A, 8-Methoxy-N-((1r,4r)-4-(2-methoxyethoxy)cyclohexyl)-5,6-dihydrobenzo[f]imidazo[1,5-d][1,4]oxazepine-10-carboxamide]
< 1	30 to 100	COCCO[C@H]1CC[C@H](NC(=O)c2cc3c(c(C(F)(F)F)c2)OCCn2cncc2-3)CC1 [Compound 55A, N-((1r,4r)-4-(2-Methoxyethoxy)cyclohexyl)-8-(trifluoromethyl)-5,6-dihydrobenzo[f]imidazo[1,5-d][1,4]oxazepine-10-carboxamide]
1 to 10	< 30	O=C(N[C@H]1CC[C@H](CCO)CC1)c1ccc2c(c1)-c1cncn1CCO2 [Compound 56A, N-((1r,4r)-4-(2-Hydroxyethyl)cyclohexyl)-5,6-dihydrobenzo[f]imidazo[1,5-d][1,4]oxazepine-10-carboxamide]
< 1	< 30	COCCO[C@H]1CC[C@H](NC(=O)c2cc(F)c3c(c2)-c2cncn2CCO3)CC1 [Compound 57A, 8-Fluoro-N-((1r,4r)-4-(2-methoxyethoxy)cyclohexyl)-5,6-dihydrobenzo[f]imidazo[1,5-d][1,4]oxazepine-10-carboxamide]
< 1	< 30	CC(C)(O)[C@H]1CC[C@H](NC(=O)c2ccc3c(c2)-c2cncn2CCO3)CC1 [Compound 58A, N-((1r,4r)-4-(2-Hydroxypropan-2-yl)cyclohexyl)-5,6-dihydrobenzo[f]imidazo[1,5-d][1,4]oxazepine-10-carboxamide]
1 to 10	< 30	COCCNC(=O)[C@H]1CC[C@H](NC(=O)c2ccc3c(c2)-c2cncn2CCO3)CC1 [Compound 59A, N-((1r,4r)-4-((2-Methoxyethyl)carbamoyl)cyclohexyl)-5,6-dihydrobenzo[f]imidazo[1,5-d][1,4]oxazepine-10-carboxamide]
